Experimental data reported in publication doi:10.1101/2025.01.30.635686v1 (biorxiv, 2025).

Molecular target: T1, YME1LAAA (monomeric AAA+ domain) (Homo sapiens, UniProt Q96TA2)
T1 sequence (Q96TA2 317-588): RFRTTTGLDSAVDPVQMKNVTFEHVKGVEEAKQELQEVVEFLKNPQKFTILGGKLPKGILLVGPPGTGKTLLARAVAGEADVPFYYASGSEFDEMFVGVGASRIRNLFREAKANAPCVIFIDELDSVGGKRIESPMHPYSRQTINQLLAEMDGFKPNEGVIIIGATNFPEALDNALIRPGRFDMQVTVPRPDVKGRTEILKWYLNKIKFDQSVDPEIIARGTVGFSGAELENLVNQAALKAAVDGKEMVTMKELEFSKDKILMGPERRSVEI
Assay: methyl-TROSY NMR titration
Type: binding

Question: With `Nc1ncnc2c1ncn2[C@@H]1O[C@H](COP(=O)(O)OP(=O)(O)O)[C@@H](O)[C@H]1O` [ADP] as the compound, how does the Kd read?
Answer: The Kd was 4.6 ± 2.3 µM.
